# Data taken from patent US5525623A, “Compositions and methods for the treatment of immunomediated inflammatory disorders” (Arris Pharmaceutical Corporation, priority 1994, dated 1996).
# What was measured:
# Tryptase [1] = molecular target: T1, Tryptase (Homo sapiens, UniProt Q15661); assay: In Vitro Tryptase Inhibition Assay (hydrolysis of tosyl-GlyProLys-p-nitroanilide, Tris-HCl pH 8.2); format: biochemical
# Description: Table II lists the inhibition constants (Ki ', micromolar (μM)) which were determined for several of the compounds of the present invention, wherein R^1 is hydrogen; R^2 is hydrogen; R^3 is --(CH2)3 --NH--(C=NH)--NH2; R^4 and R^5, together with the nitrogen and carbon to which they are attached form a five-membered heterocycle; and R^6 is hydrogen. […] Unlike Ki, Ki ' may not be a true dissociation constant of the enzyme-inhibitor complex; Ki ' is equal to Ki for a noncompetitive inhibitor and is directly proportional to Ki for competitive and uncompetitive inhibitors.
# Generally, the assay conditions are light sensitive and variations in ambient light intensity may affect assay reproducibility. As a result of this potential source of error, some assays were run under dark conditions. The Ki 's reported in Tables II and III without parentheses were determined under conditions of ambient light. Ki 's reported with parentheses were determined under "dark" conditions as defined above.
# Tryptase [2] = molecular target: T1, Tryptase; assay: biochemical; settings: for Ki: Table IV
# Description: Compounds (approx. 1 mg) to be assayed against tryptase were reconstituted in dimethylsulfoxide (DMSO) and diluted 1:10 into buffer containing 50 millimolar (mM) Tris-HCl at pH 8.2, and containing 100 mM NaCl, 0.05% Tween-20. Seven additional 3-fold dilutions were made from the initial dilution into the same buffer supplemented with 10% DMSO. Aliquots (50 μl) from each of the eight dilutions in the series were transferred to individual wells in a 96-well U-bottom microtiter plate. Tryptase (25 μl; 0.5 nM final concentration) was added to each well and the samples were mixed and incubated for 1 hr at room temperature under either ambient light (i.e., the light available in the room during the experiment) or under controlled "light" or "dark" conditions. "Light conditions" refers herein to a light intensity of 400-450 footcandles from a fluorescent bulb. "Dark" refers herein to sample containers wrapped in aluminum foil. The enzyme reaction was then initiated with the addition of the synthetic tripeptide substrate, tosyl-GlyProLys-p-nitroanilide (25 μl; 0.5 mM final concentration). The microtiter plates were immediately transferred to a UV/MAX Kinetic Microplate Reader (Molecular Devices) and hydrolysis of the chromogenic substrate was followed spectrophotometrically at […] for 5 minutes. […] Initial velocity measurements, calculated from progress curves by a kinetic analysis program called "BatchKi" (available commercially from Biokin Ltd., of Madison Wis.), were used to determine apparent inhibition constants for each inhibitor. This program is designed to perform regressions and curve-fitting of non-linear data.
# Compound 3 was assayed against tryptase at four different pH's in the following buffer system: 120 mM NaCl, 2.7 mM KCl, 0.13 mM NaH2 PO4, 0.896 mM Na2 HPO4. The final buffer system used included 0.05% of Tween-20.
# Thus, the assay procedure described above was performed wherein the dilution of Compound 3 and the addition of tryptase was done under ambient light at room temperature (22°-26° C.). The assay plate was wrapped in aluminum foil for a 1-hr incubation before substrate addition, which was also done under ambient light.
# allergic sheep [3] = assay: Allergic sheep model of asthma: specific lung resistance (SRL) after antigen challenge; format: in vivo; settings: 9 mg aerosol 0.5 h before, 4 h and 24 h after antigen challenge
# Description: (§1) The initial asthmatic response can be evaluated in guinea pigs, and dogs, and particularly, with a basenji-greyhound cross strain which develops nonspecific airway hyperresponsiveness to numerous nonallergenic substances, such as methacholine and citric acid. […] In dual responding animals, the initial asthmatic response (IAR) is followed by a late asthmatic response (LAR) at 6-8 hours post-exposure.
# (§2) The allergic sheep model was used to evaluate the potential antiasthmatic effects of the compounds of the present invention.
# (§3) The allergic sheep model of asthma was employed in these studies. These methods have been published previously (see Abraham et al. (1983) Am. Rev. Respir. Dis. 128:839-844; Allegra et al. (1983) J. Appl. Physiol. 55:726-730; Russi et al. (1985) J. Appl. Physiol. 59:1416-1422; Soler et al. ((1989) J. Appl. Physiol. 67:406-413. Each sheep served as its own control. Body weights for these animals ranged from 20-50 kilograms.
# (§4) In these studies, 9 mg of Compound 3 of Tables I and II was dissolved in 3 mL buffered saline and the total solution delivered as an aerosol 0.5 hours before, 4 hours after, and 24 hours after antigen challenge (total dose=27; n=6). In the control (vehicle only) trial, antigen challenge caused peak early and late increases above baseline in specific lung resistance (SRL) of 374±104% and 212±21% (mean±SE). In contrast, when the sheep were treated with Compound 3 of Tables I and II, the early and late increases in SRL were 280±39% and 72±9% (p <0.05 vs. control, Wilcoxon signed rank test). The peak early response was taken as the average of the maximum values occurring immediately post-challenge. Peak late responses were calculated by averaging the maximum response values obtained for each animal within the 6-8 hour time period. This approach is conservative and eliminates the possible reduction in the late response due simply to averaging.
# allergic sheep [4] = assay: Allergic sheep model: airway hyperresponsiveness to carbachol (PC400) 24 hours after antigen challenge; format: in vivo
# Description: as §1, §2, §3, §4
# Twenty-four hours after antigen challenge in both the control and drug trial, the sheep developed airway hyperresponsiveness. […] Baseline PC400 was 22.0±3.7 breath units in the control trial, falling to 9.1±1.3 breath units after antigen challenge (p<0.05 vs. baseline).
# [5] = Table III, asterisk: "light" conditions, 400-450 footcandles
# [6] = Table III, parentheses: "dark" conditions (aluminum foil)
# [7] = Table II, asterisk: "light" conditions, 400-450 footcandles
# [8] = Table II, parentheses: "dark" conditions (aluminum foil)
# [9] = Table II, ambient light (no parentheses)
# T1 sequence (Q15661 31-275): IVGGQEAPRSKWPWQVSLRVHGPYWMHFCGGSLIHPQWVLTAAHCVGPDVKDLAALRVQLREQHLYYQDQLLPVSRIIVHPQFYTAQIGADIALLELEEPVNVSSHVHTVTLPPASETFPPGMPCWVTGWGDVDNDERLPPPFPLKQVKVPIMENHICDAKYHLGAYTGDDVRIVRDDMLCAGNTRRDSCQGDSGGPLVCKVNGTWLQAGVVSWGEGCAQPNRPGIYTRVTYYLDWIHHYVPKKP
Ki (Tryptase [1]; [7]),Ki (Tryptase [1]; [8]),Ki (Tryptase [1]; [9]),Compound,further results
752 µM,707 µM,,N=C(N)NCCC[C@H](NC(=O)c1cc2ccccc2cc1O)C(=O)N1CCC[C@H]1C(N)=O [Compound 14],
,,0.84 µM,N=C(N)NCCC[C@H](NC(=O)c1c(O)ccc2ccccc12)C(=O)N1CCC[C@H]1C(N)=O [Compound 15],
,,208 µM,COC(=O)[C@@H]1CCCN1C(=O)[C@H](CCCNC(=N)N)NC(=O)c1c(O)ccc2ccccc12 [Compound 8],
,,15 µM,CN(C)C(=O)[C@@H]1CCCN1C(=O)[C@H](CCCNC(=N)N)NC(=O)c1c(O)ccc2ccccc12 [Compound 5],

# The remaining lines, values behind:
Compound,Ki (Tryptase [1]; [7]),Ki (Tryptase [1]; [8]),Ki (Tryptase [1]; [9]),further results
N=C(N)Nc1ccc(C[C@H](NC(=O)c2ccc3ccccc3c2O)C(=O)N2CCC[C@H]2C(N)=O)cc1 [Compound 10],,,,Ki (Tryptase [1]; [5]): 2.5 µM; Ki (Tryptase [1]; [6]): 18 µM
Cc1ccc(C(=O)N[C@@H](CCCNC(=N)N)C(=O)N2CCC[C@H]2C(N)=O)c(O)c1 [Compound 2],,,> 500 µM,
CN(CC(N)=O)C(=O)[C@H](CCCNC(=N)N)NC(=O)c1c(O)ccc2ccccc12 [Compound 1],,,,Ki (Tryptase [1]; [5]): 3 µM; Ki (Tryptase [1]; [6]): 637 µM
N=C(N)NCCC[C@H](NC(=O)c1ccc2ccccc2c1O)C(=O)N1CCC[C@H]1C(=O)N[C@@H](Cc1ccccc1)C(N)=O [Compound 13],0.6 µM,110 µM,,
"N=C(N)NCCC[C@H](NC(=O)c1ccc2ccccc2c1O)C(=O)N1CCC[C@H]1C(N)=O [Compound 3, 1-hydroxy-2-naphthoyl-L-arginyl-L-proline amide]",0.3 µM,82 µM,,"sensitivity to light in the buffer system (Tryptase [2]; 120 mM NaCl, 2.7 mM KCl, 0.13 mM NaH2PO4, 0.896 mM Na2HPO4, 0.05% Tween-20, pH 7.5): less sensitive to light; Ki (Tryptase [2]; pH 6.5): 14 µM; Ki (Tryptase [2]; pH 7.0): 8 µM; Ki (Tryptase [2]; pH 7.5): 5.4 µM; Ki (Tryptase [2]; pH 8.0): 6.1 µM; effect on early response (allergic sheep [3]): exhibited a tendency to reduce the early response; effect on late response (allergic sheep [3]; FIG. 1): attenuated the late response; late increase in SRL (peak late response above baseline, 6-8 hours) (allergic sheep [3]; n=6, mean±SE, control 212±21%, p <0.05 vs. control): 72±9%; early increase in SRL (peak early response above baseline) (allergic sheep [3]; n=6, mean±SE, control 374±104%): 280±39%; effect on 24 hour hyperresponsiveness (allergic sheep [4]; 24 h after antigen challenge, FIG. 2): blocked the 24 hour hyperresponsiveness; PC400, after antigen challenge (allergic sheep [4]; drug trial, 24 h after antigen challenge, control 9.1±1.3): 17.6±3.5 breath units; PC400 change relative to baseline (allergic sheep [4]; drug trial, after antigen challenge vs. baseline): unchanged relative to baseline; PC400, baseline (allergic sheep [4]; drug trial, baseline (before antigen challenge), control baseline 22.0±3.7): 16.0±3.8 breath units; airway function in allergen challenged sheep (allergic sheep [4]; treatment with Compound 3, allergen challenged sheep): statistically significant improvement in airway function"
N=C(N)NCCC[C@H](NC(=O)c1nc2ccccc2nc1O)C(=O)N1CCC[C@H]1C(N)=O [Compound 9],23 µM,56 µM,,
N=C(N)NCCC[C@H](NC(=O)c1ccc2ccccc2c1O)C(=O)N1CCC[C@@H]1C(N)=O [Compound 12],,,,Ki (Tryptase [1]; [5]): 2.5 µM; Ki (Tryptase [1]; [6]): 818 µM
N=C(N)NCCC[C@H](NC(=O)c1ccc2ccccc2c1O)C(=O)N1CCC[C@H]1C(=O)N1CCCC(C(N)=O)C1 (stereo partly shown) [Compound 6],,,82 µM,
N=C(N)NCCC[C@H](NC(=O)c1cc(O)ccc1O)C(=O)N1CCC[C@H]1C(N)=O [Compound 20],,,20 µM,
N=C(N)NCCC[C@H](NC(=O)c1ncccc1O)C(=O)N1CCC[C@H]1C(N)=O [Compound 16],8 µM,63 µM,,
N=C(N)NCCC[C@H](NC(=O)c1ccc2ccccc2c1O)C(=O)N1CCC[C@H]1C(=O)N1CCC(C(N)=O)CC1 [Compound 7],,,664 µM,
Cc1ccc2c(O)c(C(=O)N[C@@H](CCCNC(=N)N)C(=O)N3CCC[C@H]3C(N)=O)cnc2n1 [Compound 17],,,900 µM,
N=C(N)NCCC[C@H](NC(=O)c1ccccc1O)C(=O)N1CCC[C@H]1C(N)=O [Compound 19],8 µM,2450 µM,,
COC(=O)[C@@H]1C[C@@H](O)CN1C(=O)[C@H](CCCNC(=N)N)NC(=O)c1c(O)ccc2ccccc12 [Compound 4],,,,"Ki (Tryptase [1]; Table III, ambient light (no parentheses)): 749 µM"
N=C(N)NCCC[C@H](NC(=O)c1ccc2ccccc2c1O)C(=O)N1C[C@H](O)C[C@H]1C(N)=O [Compound 11],,,,Ki (Tryptase [1]; [5]): 0.3 µM; Ki (Tryptase [1]; [6]): 40 µM
N=C(N)NCCC[C@H](NC(=O)c1cccnc1O)C(=O)N1CCC[C@H]1C(N)=O [Compound 18],,,452 µM,
N=C(N)NCCC[C@H](NC(=O)c1cc(-c2ccccc2)ccc1O)C(=O)N1CCC[C@H]1C(N)=O [Compound 21],18 µM,149 µM,,
